Each structure is given as a SMILES string. ≈ marks a conversion by molar mass, not a printed value.

Some test systems named below: Staphylococcus aureus MR; Klebsiella pneumoniae; Pseudomonas aeruginosa; Escherichia coli; Acinetobacter baumannii; Enterococcus faecium; Serratia marcescens; Streptococcus pneumoniae; Enterococcus faecalis; Staphylococcus aureus; Escherichia coli UB1005; Escherichia coli K99; Escherichia coli K88.
Common to all, as to experiment: ≥ marks a high value that may be exact or a test limit, other limits are often not marked, values filed in µg/mL are converted to µM
Assay [1] deals with Candida albicans NCTC 1467.
Assay [2] concerns Escherichia coli NCTC 10418.
Assay [3] has as its system Enterococcus faecalis NCTC 12697.
Assay [4] has as its system Staphylococcus aureus ATCC 12493.
Assay [5] has as its system Pseudomonas aeruginosa ATCC 27853.
The subject of assay [6] is Staphylococcus aureus NCTC 10788.
The test system of assay [7] is Stenotrophomonas maltophilia.
Assay [8] concerns Staphylococcus epidermidis KCTC 1917.
Assay [9] deals with Acinetobacter baumannii CCARM 12035.
The test system of assay [10] is Salmonella typhimurium KCTC 1926.
The subject of assay [11] is Escherichia coli KCTC 1682.
For assay [12], the system named is Escherichia coli CCARM 1229.
Assay [13] relates to Acinetobacter baumannii KCTC 2508.
In assay [14] the test system is Staphylococcus aureus CCARM 3126.
The test system of assay [15] is Bacillus subtilis KCTC 3068.
Assay [16] has as its system Staphylococcus aureus KCTC 1621.
The test system of assay [17] is Pseudomonas aeruginosa CCARM 2002.
In assay [18] the test system is Pseudomonas aeruginosa KCTC 2004.
For assay [19], the system named is Salmonella typhimurium CCARM 8007.
For assay [20], the system named is Pseudomonas aeruginosa CICC 21630.
The test system of assay [21] is Salmonella enterica subsp. enterica serovar Pullorum C79-13.
In assay [22] the test system is Salmonella enterica subsp. enterica serovar Typhimurium ATCC 14028.
The test system of assay [23] is Escherichia coli ATCC 25922.
Assay [24] concerns Pseudomonas aeruginosa CICC 21625.
Assay [25] concerns Pseudomonas aeruginosa PAO1.
For assay [26], the system named is Salmonella enterica subsp. enterica serovar Typhimurium C77-31.

Broadly, the MIC is the lowest concentration found to suppress growth. `CC[C@H](C)[C@H](NC(=O)CN)C(=O)N[C@@H](CCSC)C(=O)N[C@@H](CC(=O)O)C(=O)N[C@H](C(=O)N[C@H](C(=O)N[C@@H](CCCCN)C(=O)N[C@@H](CC(N)=O)C(=O)N[C@@H](C)C(=O)N[C@@H](C)C(=O)N[C@@H](CCCCN)C(=O)N[C@@H](CC(N)=O)C(=O)N[C@@H](CC(C)C)C(=O)N[C@@H](C)C(=O)NCC(=O)N[C@@H](CCC(N)=O)C(=O)N[C@@H](CC(C)C)C(=O)N[C@@H](CC(C)C)C(=O)N[C@@H](CC(=O)O)C(=O)N[C@@H](CCCCN)C(=O)N[C@@H](CC(C)C)C(=O)N[C@@H](CCCCN)C(=O)O)C(C)C)[C@@H](C)O` [GIMDTVKNAAKNLAGQLLDKLK]: the MIC is ≥ 512 µM in assay [1]; ≥ 128 µM in [2]; ≥ 512 µM in assay [3]; ≥ 512 µM in assay [4]; > 512 µM in assay [5]; ≥ 256 µM in assay [6].
For `CC[C@H](C)[C@H](NC(=O)[C@H](CC(C)C)NC(=O)CNC(=O)[C@H](CO)NC(=O)[C@@H](NC(=O)[C@H](CC(C)C)NC(=O)[C@@H](N)CC(N)=O)C(C)C)C(=O)N[C@@H](CCC(=O)O)C(=O)N[C@@H](C)C(=O)N[C@@H](CCCN=C(N)N)C(=O)N[C@@H](CCCCN)C(=O)N[C@@H](Cc1ccc(O)cc1)C(=O)N[C@@H](CC(C)C)C(=O)N[C@@H](CCC(=O)O)C(=O)N[C@@H](CCC(N)=O)C(=O)N[C@@H](CC(C)C)C(=O)N[C@@H](Cc1cnc[nH]1)C(=O)N[C@@H](CCCN=C(N)N)C(=O)N[C@@H](CCCCN)C(=O)N[C@@H](CC(C)C)C(=O)N[C@@H](CCCCN)C(=O)N[C@@H](CC(N)=O)C(=O)N[C@@H](CS)C(=O)N[C@@H](CCCCN)C(=O)N[C@H](C(=O)O)C(C)C` [NLVSGLIEARKYLEQLHRKLKNCKV], the MIC in the assay on Staphylococcus aureus MR was determined as 3.84 µM (≈ 11.3 µg/mL); in the assay on Klebsiella pneumoniae, 3.84 µM (≈ 11.3 µg/mL); in the assay on Pseudomonas aeruginosa it was 15.3 µM (≈ 45.3 µg/mL); in the assay with Escherichia coli, 2.71 µM (≈ 8.02 µg/mL); in [7], 10.8 µM (≈ 32 µg/mL); in the assay with Acinetobacter baumannii, 15.3 µM (≈ 45.3 µg/mL). Moreover, the MIC against Enterococcus faecium was found to be 10.8 µM (≈ 32 µg/mL); with Serratia marcescens, 7.65 µM (≈ 22.6 µg/mL); in the assay on Streptococcus pneumoniae, 3.84 µM (≈ 11.3 µg/mL); in the assay on Enterococcus faecalis, 3.84 µM (≈ 11.3 µg/mL); in the assay with Staphylococcus aureus, 3.84 µM (≈ 11.3 µg/mL).
`CC[C@H](C)[C@H](NC(=O)[C@H](CCCCN)NC(=O)[C@H](CCCCN)NC(=O)[C@H](C)NC(=O)[C@@H](NC(=O)[C@H](C)NC(=O)[C@H](CC(C)C)NC(=O)[C@H](CC(C)C)NC(=O)[C@H](C)NC(=O)[C@H](CCCCN)NC(=O)[C@H](CC(C)C)NC(=O)[C@H](CC(N)=O)NC(=O)[C@H](CC(C)C)NC(=O)[C@H](CCCN=C(N)N)NC(=O)[C@H](CCCN=C(N)N)NC(=O)[C@H](CCCN=C(N)N)NC(=O)[C@H](CCC(N)=O)NC(=O)[C@H](CCCN=C(N)N)NC(=O)[C@H](CCCN=C(N)N)NC(=O)[C@H](CCCCN)NC(=O)[C@H](CCCCN)NC(=O)[C@@H](N)CCCN=C(N)N)C(C)C)C(=O)N[C@@H](CC(C)C)C(N)=O` [RKKRRQRRRLNLKALLAVAKKIL]: the MIC turned out to be 2 µM (≈ 5.66 µg/mL) in assay [1]; 2 µM (≈ 5.66 µg/mL) in assay [2]; 8 µM (≈ 22.6 µg/mL) in assay [3]; 4 µM (≈ 11.3 µg/mL) in assay [4]; 4 µM (≈ 11.3 µg/mL) in assay [5]; 4 µM (≈ 11.3 µg/mL) in [6].
Turning to `CC[C@H](C)[C@H](NC(=O)[C@H](CCCCN)NC(=O)[C@H](Cc1c[nH]c2ccccc12)NC(=O)[C@@H](N)CCCN=C(N)N)C(=O)N[C@@H](Cc1ccccc1)C(=O)N[C@@H](CCCCN)C(=O)N[C@@H](CCCCN)C(=O)N[C@@H](C)C(=O)N[C@@H](C)C(=O)N[C@@H](CCCCN)C(=O)N[C@@H](CCCCN)C(=O)N[C@@H](C)C(N)=O` [RWKIFKKAAKKA], the MIC in assay [8] is ≥ 32 µM; in assay [9] it was 16 µM (≈ 23.6 µg/mL); in [10], ≥ 32 µM; in assay [11], 8 µM (≈ 11.8 µg/mL); in assay [12], ≥ 32 µM; in assay [13], ≥ 32 µM. The minimum inhibitory concentration (MIC) in [14] was ≥ 32 µM; in [15], 16 µM (≈ 23.6 µg/mL); in [16], 8 µM (≈ 11.8 µg/mL); in [17], ≥ 32 µM; in [18], 8 µM (≈ 11.8 µg/mL); in [19] it was 16 µM (≈ 23.6 µg/mL).
For `CC[C@H](C)[C@H](NC(=O)[C@H](CCCCN)NC(=O)[C@H](Cc1c[nH]c2ccccc12)NC(=O)[C@@H](N)CCCN=C(N)N)C(=O)N[C@@H](Cc1ccccc1)C(=O)N[C@@H](CCCCN)C(=O)N[C@@H](CCCCN)C(=O)N[C@@H](C)C(=O)N[C@@H](C)C(=O)N[C@@H](CCCCN)C(=O)N[C@@H](CCCCN)C(=O)NCC(N)=O` [RWKIFKKAAKKG], the minimum inhibitory concentration (MIC) in assay [8] is ≥ 32 µM; in assay [9], 16 µM (≈ 23.4 µg/mL); in assay [10], 16 µM (≈ 23.4 µg/mL); in assay [11], 8 µM (≈ 11.7 µg/mL); in assay [12] it was ≥ 32 µM; in assay [13], ≥ 32 µM. Moreover, the MIC came to 16 µM (≈ 23.4 µg/mL) in assay [14]; 16 µM (≈ 23.4 µg/mL) in [15]; 16 µM (≈ 23.4 µg/mL) in assay [16]; 16 µM (≈ 23.4 µg/mL) in assay [17]; 8 µM (≈ 11.7 µg/mL) in assay [18]; 16 µM (≈ 23.4 µg/mL) in assay [19].
Take `CC(C)[C@H](N)C(=O)N[C@@H](CCCN=C(N)N)C(=O)N1CCC[C@H]1C(=O)N[C@H](C(=O)N[C@H](C(=O)N[C@@H](CCCN=C(N)N)C(=O)N1CCC[C@H]1C(=O)N[C@H](C(=O)N[C@H](C(=O)N[C@@H](CCCN=C(N)N)C(=O)N1CCC[C@H]1C(=O)N[C@H](C(=O)N[C@H](C(=O)N[C@@H](CCCN=C(N)N)C(=O)N1CCC[C@H]1C(=O)N[C@H](C(=O)N[C@H](C(=O)N[C@@H](CCCN=C(N)N)C(=O)N1CCC[C@H]1C(=O)N[C@H](C(=O)N[C@H](C(=O)N[C@@H](CCCN=C(N)N)C(=O)N1CCC[C@H]1C(=O)N[C@H](C(N)=O)C(C)C)C(C)C)C(C)C)C(C)C)C(C)C)C(C)C)C(C)C)C(C)C)C(C)C)C(C)C)C(C)C` [VRPVVRPVVRPVVRPVVRPVVRPV]: the minimum inhibitory concentration (MIC) in the assay on Klebsiella pneumoniae was > 64 µM; with Pseudomonas aeruginosa, > 64 µM; against Escherichia coli, 64 µM (≈ 174 µg/mL); in assay [20] it was ≥ 64 µM; in the assay with Escherichia coli UB1005, ≥ 32 µM; in assay [21], 8 µM (≈ 21.8 µg/mL). For the same compound, the MIC in assay [22] was 16 µM (≈ 43.6 µg/mL); in assay [23], 64 µM (≈ 174 µg/mL); with Escherichia coli K99 it was 16 µM (≈ 43.6 µg/mL); in [24], ≥ 64 µM; in the assay with Acinetobacter baumannii, 4 µM (≈ 10.9 µg/mL); in assay [25], > 64 µM. The minimum inhibitory concentration (MIC) in [5] was > 64 µM; in [26] it was ≥ 32 µM; with Escherichia coli K88, 8 µM (≈ 21.8 µg/mL).

Values taken from DBAASP.
